Laboratory results as given in patent publication US20240173432A1, “Compositions and Methods for Treatment of Myotonic Dystrophy Type 1 with CRISPR/SluCas9” (Vertex Pharmaceuticals Incorporated, priority 2021, published 2024).

What was measured:
[1] = test system: 3′ UTR of the human DMPK gene; experiment: Single-cut screening: indel editing efficiency by Sanger sequencing and ICE analysis in primary DM1 patient myoblasts; assay type: cell-based; conditions: vehicle-treated samples; for Indel efficiency: single SluCas9 sgRNA RNP in primary DM1 patient myoblasts, Sanger sequencing and ICE analysis; for indel efficiency (Sanger sequencing and ICE analysis): single-cut, SluCas9 RNP, 72 hrs post nucleofection, wild-type allele
Outline: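 Indels were estimated by ICE from Sanger chromatograms of PCR amplicons covering the DMPK 3′ UTR wild-type allele, using only vehicle-treated samples; sgRNAs with R2<0.9 are flagged. Samples came from primary DM1 patient myoblasts (2 × 10^5) harvested 72 h after nucleofection with 30 pmol SluCas9 and 90 pmol single sgRNA RNP.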

[2] = test system: CUG foci in primary DM1 patient myoblasts; experiment: Single-cut screening: FISH staining of CUG RNA foci; assay type: cell-based, human; conditions: single sgRNA, primary DM1 patient myoblasts; for % of CUG foci free nuclei (DNA-PKi): DNA-PKi treated
Outline: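 CD56-purified primary DM1 patient myoblasts nucleofected with SluCas9:sgRNA RNP (30:90 pmol, single-cut), then DMSO or 3 μM DNA-PK inhibitor for 48 h. At 72 h post-nucleofection, cells fixed and stained for CUG foci with Cy3-PNA(CAG)5 probe (1 ng/μL, 80 °C), co-stained for MBNL1 and Hoechst, imaged by high-content confocal microscopy.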

[3] = test system: CAG foci in primary DM1 patient myoblasts; experiment: Single-cut screening: CAG foci staining; assay type: cell-based, human; conditions: single sgRNA; for % of CAG foci positive nuclei (DNA-PKi): DNA-PKi treated
Outline: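 Primary DM1 patient myoblasts were PFA-fixed and hybridized with […] (1 ng/μL, 15 min at 80° C) in 30% formamide/2×SSC, followed by anti-MBNL1 immunostaining and Hoechst counterstain. CAG RNA foci were quantified by high-content confocal imaging after single-cut SuCas9 sgRNA editing.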

Row | Substance | Indel efficiency [1] [%] | % of CUG foci free nuclei (DNA-PKi) [2] [%] | % of CUG foci free nuclei (Vehicle) [2] [%] | % of CAG foci positive nuclei (DNA-PKi) [3] [%] | % of CAG foci positive nuclei (Vehicle) [3] [%] | indel efficiency (Sanger sequencing and ICE analysis) [1]
1 | GACAATAAATACCGAGGAATGT (guide RNA; chemistry not fully specified) [SluD81] | 10 | 28.66 | 9.64 | 1.75 | 1.54 | –
2 | GACGCCCTGCTCTGGGGAGCGT (guide RNA; chemistry not fully specified) [SluD33] | 74 | 33.92 | 12.72 | 1.76 | 4.78 | –
3 | GAGAGCAGCGCAAGTGAGGAGG (listed as DNA, chemistry not fully specified) [SluD48] | 60 | 25.41 | 13.31 | 2.91 | 2.3 | high editing IN4DEL efficiency
4 | GAGGGCCTTTTATTCGCGAGGG (guide RNA; chemistry not fully specified) [SluD97] | 11 | 39.95 | 16.07 | 2.01 | 1.19 | –
5 | GATAGGTGGGGGTGCGTGGAGG (guide RNA; chemistry not fully specified) [SluD21] | 36 | 32.15 | 9.96 | 1.77 | 1.95 | –
6 | GATCACAGACCATTTCTTTCTT (guide RNA; chemistry not fully specified) [SluD01] | 0 | 17.29 | 18.45 | 1.34 | 0.79 | –
7 | GATGGAGGGCCTTTTATTCGCG (guide RNA; chemistry not fully specified) [SluD98] | 0 | 11.71 | 11.21 | 1.47 | 0.84 | –
8 | GCACTTTGCGAACCAACGATAG (guide RNA; chemistry not fully specified) [SluD28] | 48 | 31.88 | 11.31 | 1.29 | 1.23 | –
9 | GCCCAGCTCCAGTCCTGTGATC (guide RNA; chemistry not fully specified) [SluU28] | 17 | 36.78 | 10.14 | 1.64 | 1.15 | –
10 | GCCCCAGCCGGCTCCGCCCGCT (guide RNA; chemistry not fully specified) [SluD55] | 41 | 34.69 | 15.71 | 2.92 | 3.01 | –
11 | GCCCCCTAGCggccggggaggg (guide RNA; as printed in the source, key not given here) [SluU42] | 15 | 42.7 | 7.05 | 1.62 | 0.86 | –
12 | GCCCCGGAGTCGAAGACAGTTC (guide RNA; chemistry not fully specified) [SluU05] | 65 | 61.16 | 26.37 | 1.64 | 1.53 | –
13 | GCCCCGGGCACTCAGTCTTCCA (guide RNA; chemistry not fully specified) [SluU13] | 27 | 43.12 | 17.02 | 1.07 | 1.11 | –
14 | GCCCGCCCCCTAGCggccgggg (guide RNA; as printed in the source, key not given here) [SluU40] | 3 | 25.77 | 15.29 | 2.01 | 1 | –
15 | GCCCGGATCACAGGACTGGAGC (guide RNA; chemistry not fully specified) [SluU30] | 48 | 46.16 | 26.92 | 2.14 | 0.67 | –
16 | GCCTGTCAGCGAGTCGGAGGAC (guide RNA; chemistry not fully specified) [SluD66] | 28 | 30.48 | 13.03 | 1.94 | 1.41 | –
17 | GCGCGATCTCTGCCTGCTTACT (guide RNA; chemistry not fully specified) [SluD37] | 25 | 31.69 | 6.89 | 2.15 | 1.76 | –
18 | GCGCGGCTTCTGTGCCGTGCCC (guide RNA; chemistry not fully specified) [SluU15] | 4 | 31.71 | 7.97 | 1.28 | 0.75 | –
19 | GCGGTTGTGAACTGGCAGGCGG (guide RNA; chemistry not fully specified) [SluU18] | 14 | 48.57 | 9.74 | 1.24 | 1.1 | –
20 | GCTAGGGGGCGGGCCCGGATCA (guide RNA; chemistry not fully specified) [SluU34] | 53 | 63.08 | 19.95 | 1.03 | 0.78 | –
21 | GCTCGGAGCGGTTGTGAACTGG (listed as DNA, chemistry not fully specified) [SluU21] | 80 | 54.83 | 23.65 | 0.66 | 0.68 | high editing IN4DEL efficiency
22 | GCTTTTGCCAAACCCGCTTTTT (guide RNA; chemistry not fully specified) [SluD40] | 5 | 23.44 | 8.9 | 1.46 | 1.68 | –
23 | GGCCCGCCCCCTAGCggccggg (guide RNA; as printed in the source, key not given here) [SluU38] | 2 | 32.86 | 7.24 | 1.56 | 0.68 | –
24 | GGCCCGGATCACAGGACTGGAG (guide RNA; chemistry not fully specified) [SluU31] | 29 | 40.74 | 14.2 | 1.62 | 0.94 | –
25 | GGCCTTTTATTCGCGAGGGTCG (guide RNA; chemistry not fully specified) [SluD94] | 30 | 27.23 | 18.18 | 1.32 | 1 | –
26 | GGCGCGATCTCTGCCTGCTTAC (guide RNA; chemistry not fully specified) [SluD36] | 52 | 29.02 | 13.52 | 2.32 | 3.24 | –
27 | GGCGCGGCTTCTGTGCCGTGCC (guide RNA; chemistry not fully specified) [SluU16] | 7 | 27.5 | 10.73 | 1.73 | 1.28 | –
28 | GGGCCTTTTATTCGCGAGGGTC (guide RNA; chemistry not fully specified) [SluD95] | 28 | 27.23 | 21.81 | 2.19 | 1.3 | –
